The experiment deals with PAF-induced platelet aggregation. Kind of experiment: Inhibitory effect on PAF-induced platelet aggregation in rabbits (in vitro test). Type of experiment: cell-based. The following applies: Oryctolagus cuniculus, read-out: Inhibition of PAF-induced platelet aggregation IC50. The protocol:
Experiment 1: Inhibitory effect on platelet aggregation in rabbits (in vitro test)
Blood samples to which was added 1/10 volume of 3.8% sodium citrate solution were collected from rabbits. Platelet rich plasma (PRP) was prepared by centrifuging the blood sample at 200×g for 10 minutes, and platelet poor plasma (PPP) was prepared by centrifuging the remaining blood sample at 1000× g for 10 minutes.
Aggregation ability was measured with a turbidimetric device (6-channel NKK Hematracer 1, model PAT-6A) according to the method of G.V.R. Born described in J. Physiology, vol. 168, p. 178 (1963). The aggregometer was adjusted in sensitivity to give light transmission values of 0 and 100% for PRP and PPP, respectively. With stirring at 1000 rpm, 0.3 μl of test compound solution or solvent was added to 0.3 ml of PRP. After the mixture was kept at 37° C. for 2 minutes, to the mixture was added 3 μl synthetic PAF at the final concentration of 1.8×10^-7 M and the light transmission was recorded for 5 minutes.
The inhibition percentage of test compounds on platelet aggregation was calculated from the following formula by measuring the maximal light transmission in the presence and absence of the test compounds. [formula]
IC50 (μg/ml, concentration of 50% inhibition) was graphically determined.

≈ marks a conversion by molar mass, not a printed value. Counter-ions that a name gives are not always drawn. Like-named read-outs stand apart in the source and are kept apart here.

What is called IC50 is the midpoint of a concentration-inhibition curve. Take `Cc1nnc2n1-c1sc(C(C)OC(=O)c3ccccc3)cc1C(c1ccccc1Cl)=NC2` (centres unmarked) [Example 13, 2-(1-benzoyloxyethyl)-4-(2-chlorophenyl)-9-methyl-6H-thieno[3,2-f][1,2,4]triazolo[4,3-a][1,4]diazepine.hydrochloride]: for the setting “Platelet”, the IC50 lay in the range of 0.1 to 0.3 mg/L. Consider `Cc1nnc2n1-c1sc(C(C)OC(=O)C(C)c3ccc(CC(C)C)cc3)cc1C(c1ccccc1Cl)=NC2` (centres unmarked) [Example 2, 2-(1-(2-(4-iso-butylphenyl)propionyl)oxyethyl)-4-(2-chlorophenyl)-9-methyl-6H-thieno[3,2-f][1,2,4]triazolo[4,3-a][1,4]diazepine], for which the IC50 (Platelet) fell in the range of 0.01 to 0.03 mg/L (≈ 0.0183 to 0.0548 µM). Take `Cc1nnc2n1-c1sc(C(C)OC(=O)C(C)(C)C)cc1C(c1ccccc1Cl)=NC2` (centres unmarked) [Example 14, 4-(2-chlorophenyl)-9-methyl-2(1-pivaloyloxyethyl)-6H-thieno[3,2-f][1,2,4]triazolo[4,3-a][1,4]diazepine]: where the note is “Platelet”, the IC50 amounted to 0.2 mg/L (≈ 0.451 µM). With `Cc1ccccc1C1=NCc2nnc(C)n2-c2sc(C(C)OC(=O)C(C)c3ccc(CC(C)C)cc3)cc21` (centres unmarked) [Example 4, 2-(1-(2-(4-isobutylphenyl)propionyl)oxyethyl)-4-(2-methylphenyl)-9-methyl-6H-thieno[3,2-f][1,2,4]triazolo[4,3-a][1,4]diazepine], the IC50 (rabbit platelet rich plasma, 37° C., PAF final concentration 1.8×10^-7 M) is 0.03 to 0.1 mg/L (≈ 0.057 to 0.19 µM). Regarding `CCc1cc2c(s1)-n1c(C)nnc1CN=C2c1ccccc1Cl` [Etizolam, 6-(o-chlorophenyl)-8-ethyl-1-methyl-4H-s-triazolo [3,4c]thieno[2,3-e][1,4]diazepine, reference compound], the IC50 (Platelet) stood at 1.3 mg/L (≈ 3.79 µM).

The record behind these values is patent publication US5028603A, “Ester-substituted thienotriazolodiazepine compounds and pharmaceutical uses thereof” (Yoshitomi Pharmaceutical Industries, Ltd., priority 1987, dated 1991).
